Experiments:
Sum159 xenograft tumors = experiment: ALDH+ cells in Sum159 xenografts in vivo; parameters: species or system nude mice; settings: 100 μM DTPP in drinking water 2 weeks; BSO 675 mg/kg i.p.; Au 2.7 mg/kg i.p.
Protocol: FIGS. 1A-D: BSO, DTPP and AUR treated SUM159, MDA-MB231 and HMEC Clonogenic survival. In Panel A (SUM 159), B (MDA-MB231) and C(HMEC), 150,000 cells/dish SUM159 or MDA-MB231 and 300,000 cells/dish were plated in 60 mm tissue culture dishes. After 48 hours, cells were given fresh complete HMECs media and treated with 100 μM BSO+/1 μM DTPP for 24 hours. 500 nM AUR were added 15 mins before the trypsinization of cells for clonogenic survival assay. In panel A-C, The error bars represent mean±1 SD of n=1 treatment dishes done in 3 separate experiments where each treatment dish was used to prepare 6-10 replicate cloning dishes for analysis. *p<0.001 as compared to Control. […] Mice growing Sum159 xenograft tumors were treated with 100 μM DTPP in drinking water for 2 weeks followed by i.p. injections of BSO 675 mg/kg followed in 2 hrs with Au 2.7 mg/kg. The day following injections tumors were harvested, digested and stained for ALDH positive cells. Each bar represents an average of at least three tumors. Error bars are SEM. *p<0.05 vs. control.
To address this question, SUM159 were treated with these drugs as described in FIG. 1, and aldehyde dehydrogenase (ALDH) activity, a marker of cancer stem cells was examined by ALDEFLUOR assay. […]

SUM159 cells [1] = experiment: CDCFH2 / CDCF probe labeling (intracellular hydroperoxides), SUM159; format: cell-based, human; settings: oxidation-sensitive probe
Protocol: (§1) FIGS. 5A-5D: CDCFH2 oxidation sensitive and CDCF oxidation insensitive probe labeling of BSO, DTPP, and AUR exposed SUM159 and HMECs cells. Asynchronously growing cultures of SUM159 (Panels A, B) and HMECs (Panes C, D) were plated and treated as described in FIG. 1. Monolayer cultures were harvested and trypsinized, washed once with PBS then labeled in PBS with either CDCFH2 (Panesl A, C) or CDCF (Panels B, D)(10 μg/mL, in 0.1% DMSO 15 minutes) at 37° C. Mean fluorescence intensity (MFI) of 10,000 cells was analyzed by flow cytometry. Samples were assayed in triplicate; Mean±1 SEM of 3 separate experiments containing 3 treatment dishes per group (n=9), *p<0.001 as compared to Control.
FIG. 9: Catalase inhibitable CDCFH2 oxidation in BSO, DTPP, and AUR exposed SUM159 cells. […] Mean fluorescence intensity (MFI) of 10,000 cells was analyzed by flow cytometry. […]
(§2) Measurement of Intracellular Hydroperoxides: Steady-state levels of hydroperoxides were estimated using the oxidation sensitive {5-(and-6)-carboxy-2′,7′-dichlorodihydrofluorescein diacetate, (CDCFH2)} and oxidation-insensitive {5-(and-6)-carboxy-2′,7′-dichlorofluorescein diacetate, (CDCF)} fluorescent dyes purchased from Molecular Probes. […] Samples were analyzed using a FACScan flowcytometer (Becton Dickinson Immuno-cytometry System, INC., Mountain View, Calif.) (excitation 488 nm, emission 530 nm band-pass filter). […]

HMECs = experiment: CDCFH2 / CDCF probe labeling (intracellular hydroperoxides), HMEC; format: cell-based, human; settings: oxidation-insensitive probe
Protocol: as §1
as §2, with “Probes. Cells were plated and treated with BSO, DTPP and AUR as described above.” for “Probes.”, “filter). The MFI of 10,000 cells was analyzed in each sample and corrected for autofluorescence from unlabeled cells.” for “filter).”

SUM159 cells [2] = experiment: DHE oxidation (intracellular superoxide); format: cell-based, human
Protocol: FIG. 10: DHE oxidation of BSO,DTPP and AUR exposed SUM159 cells. Asynchronously growing cultures of SUM159 were plated and treated as described in FIG. 1. Monolayer cultures were harvested and trypsinized, washed once with PBS and labeled 40 minutes with 5 μM DHE (in 0.1% DMSO) in PBS containing 5 mM pyruvate at 37° C. Each sample was then analyzed for the Mean fluorescence Intensity (MFI) of 10,000 cells by flow cytometry. Samples were assayed in triplicate; mean±1 SD of 2 experiment containing treatment dishes per group (n=6). *p<0.001 as compared to Control.
Estimation of intracellular superoxide levels using Dihydroethidium (DHE) oxidation: Steady-state levels of superoxide were estimated using the fluorescent dyes, dihydroethidium (DHE) purchased from Molecular Probes (Eugene, Oreg.). Cells were plated and treated for as described earlier. On day 6, the cells were trypsinized and washed with 5 mM/L pyruvate containing PBS once then labeled with DHE ([…], in 0.1% DMSO, 40 min) at 37° C. After labeling, cells were kept on ice. Samples were analyzed using a FACScan flowcytometer (Becton Dickinson Immunocytometry System, INC., Mountain View, Calif.) (excitation 488 nm, emission 585 nm band-pass filter). The mean fluorescence intensity (MFI) of 10,000 cells was analyzed in each sample and corrected for autofluorescence from unlabeled cells. The MFI data was normalized to control levels.

A375 melanoma cells = experiment: MTT survival fraction analysis, A375; format: cell-based

SMILES: CCCCS(=N)(=O)CCC(N)C(=O)O [BSO, L-buthionine-[S,R]-sulfoximine, reference compound]
- effect on ALDH positive cells in xenografts, in words (Sum159 xenograft tumors): decrease of ALDH+cells

SMILES: CCCCCCCCCC[P+](c1ccccc1)(c1ccccc1)c1ccccc1 [DTPP, Decyl-Triphenylphosphonium]
- increase in CDCFH2 oxidation compared to control (SUM159 cells [1]): 2 fold
- CDCF labeling signal relative to control (HMECs): 2 fold
- increase of DHE oxidation (SUM159 cells [2]): 1.5 fold
- cytotoxicity in the absence of BSO, in words (A375 melanoma cells): intermediate cytotoxicity

SMILES: CC[PH](CC)(CC)[Au][S][C@@H]1O[C@H](COC(C)=O)[C@@H](OC(C)=O)[C@H](OC(C)=O)[C@H]1OC(C)=O [AUR, S-triethylphosphinegold(I)-2,3,4,6-tetra-O-acetyl-1-thio-β-D-glucopyranoside]
- effect on ALDH positive cells in xenografts, in words (Sum159 xenograft tumors): decrease of ALDH+cells

Reference: patent US9801922B2, “Compositions and methods of treating cancer” (UNIVERSITY OF IOWA RESEARCH FOUNDATION, priority 2011, dated 2017)
